Laboratory results taken from patent US20240043860A1, “NOVEL HYDROXYPHENYLPYRUVATE DIOXYGENASE POLYPEPTIDES AND METHODS OF USE THEREOF” (Syngenta Crop Protection AG, priority 2020, published 2024).
Where “and” joins values, the source holds several entries; their conditions need not be identical. Equal entries are not always repeated. Where two headings read alike, the source gives them in different places.

Columns and labels:
[1] = tested on: HPPD variant APESV V162 (SEQ ID NO: 123); experiment: coupled HGO assay; type: biochemical, Apera spica-venti
Experimental: (§1) DNA sequences (SEQ ID NOs: 65-118, 128, 130, 131, and 133), synthesized for expression in E. coli, by GeneWiz (USA) to encode HPPD variants (SEQ ID NOs: 5-58, 122, 124, 125 and 127) derived from either Avena sativa (SEQ ID NOs: 122, 124), Alopecurus myosuroides (SEQ ID NO: 126) or Apera spica-venti (SEQ ID NOs: 123, 125) were transformed into E coli BL21 (DE3) (New England Biolabs) and grown in 0.5 ml Terrific broth +50 ug/ml Kanamycin media in a 96-deepwell block overnight (37° C., 900rpm). 25 ul of the overnight cultures were inoculated into fresh 96-deepwell block containing 1 ml Formedium Autoinduction Media (AIM). The AIM cultures were grown for 3h at 37° C. (900rpm) and then transferred to 20° C. overnight (900rpm) to allow protein expression. The overnight cultures were centrifuged and 500 ul of Cellytic B (Sigma Aldrich) was added to resuspend the cell pellets. The coupled HGO assay (Siehl et al, 2014) is used to generate IC50 values for the HPPD variants of interest.
(§2) E. coli BL21 (DE3) cells were transformed with a pET24a vector containing a C-terminally his-tagged Arabidopsis HGO gene, grown and induced overnight as described for the HPPD variants above. The cell pellet was resuspended in phosphate buffered saline at pH 7.4 containing 10% Glycerol, 1mm Tris[2-carboxyethyl] phosphine-HCl (TCEP) plus 30 mM Imidazole and lysed using lysozyme/benzonase. The extract was clarified by low speed centrifugation and purified in the same buffer down a 1 ml His Gravitrap column. The bound HGO was eluted in 0.25M imidazole and the fractions pooled and beaded into liquid nitrogen. All procedures apart from the centrifugation and beading steps were carried out under a nitrogen atmosphere.
(§3) The coupled HGO assay is carried out by adding 10 ul of HPPD extract to a 96-well plate and then adding 40 ul of reaction buffer (50 mM Bis Tris Propane, pH7.0, 25 mM sodium-L-ascorbate, 400μM mercaptoethanol, 50 μM Fe(II)SO4). The plates are left to incubate for 5 minutes on ice. […] 200 ul of HPP/HGO (197 μM hydroxyphenylpyruvic acid, 16 μl/ml Homogentisic Acid Oxidase in reaction buffer as described above) buffer is then added to the well and the reaction is regularly monitored (e.g. every 30 seconds-5 minutes) for absorbance at 330 nm for a given time period (e.g., for between 15-60 minutes). The data can then be used to calculate the IC50 value for each HPPD variant of interest.

[2] = tested on: HPPD variant ALOME V162 (SEQ ID NO: 126); experiment: coupled HGO assay; type: biochemical, Alopecurus myosuroides
Experimental: as §1, §2, §3

[3] = tested on: HPPD variant AVESA V357 (SEQ ID NO: 53); experiment: biochemical; type: biochemical, Avena sativa
Experimental: (§4) 25 ul of the overnight cultures were inoculated into fresh 96-deepwell block containing 1 ml Formedium Autoinduction Media (AIM). The AIM cultures were grown for 3h at 37° C. (900rpm) and then transferred to 20° C. overnight (900rpm) to allow protein expression. The overnight cultures were centrifuged and 500 ul of Cellytic B (Sigma Aldrich) was added to resuspend the cell pellets. The coupled HGO assay (Siehl et al, 2014) is used to generate IC50 values for the HPPD variants of interest.
as §2, §3

[4] = target: HPPD variant AVESA V162 (SEQ ID NO: 122) (Avena sativa, UniProt A0ACD5V6K6, A327R/I340E/L359M/V218I); experiment: biochemical; type: biochemical
HPPD variant AVESA V162 (SEQ ID NO: 122), sequence (A0ACD5V6K6 entry or part of it V218I/A327R/I340E/L359M): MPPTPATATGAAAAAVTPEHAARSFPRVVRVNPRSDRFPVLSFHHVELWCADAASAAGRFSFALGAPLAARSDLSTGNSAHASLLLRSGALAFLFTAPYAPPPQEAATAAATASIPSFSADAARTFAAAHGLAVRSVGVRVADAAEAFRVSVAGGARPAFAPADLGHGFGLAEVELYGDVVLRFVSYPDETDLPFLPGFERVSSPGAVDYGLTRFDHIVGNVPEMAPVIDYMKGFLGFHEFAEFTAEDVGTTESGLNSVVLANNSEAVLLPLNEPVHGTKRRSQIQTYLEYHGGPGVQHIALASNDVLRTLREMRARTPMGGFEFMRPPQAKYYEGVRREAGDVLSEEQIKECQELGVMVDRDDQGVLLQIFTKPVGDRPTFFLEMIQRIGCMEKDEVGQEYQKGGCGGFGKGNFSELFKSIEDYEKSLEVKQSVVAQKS
Experimental: as §4, §2, §3

[5] = target: HPPD variant AVESA V306 (SEQ ID NO: 32) (Avena sativa, UniProt A0ACD5V6K6, A327R/I340E/L359M/P271N/R214G/V218I); experiment: biochemical; type: biochemical
HPPD variant AVESA V306 (SEQ ID NO: 32), sequence (A0ACD5V6K6 entry or part of it R214G/V218I/P271N/A327R/I340E/L359M): as the sequence (A0ACD5V6K6 entry or part of it V218I/A327R/I340E/L359M) above, with R214G, P271N counted along it
Experimental: as §4, §2, §3

[6] = target: HPPD variant AVESA V180 (SEQ ID NO: 124) (Avena sativa, UniProt A0ACD5V6K6, A327R/G411A/I340E/L359M/V218I); experiment: biochemical; type: biochemical
HPPD variant AVESA V180 (SEQ ID NO: 124), sequence (A0ACD5V6K6 entry or part of it V218I/A327R/I340E/L359M/G411A): as the sequence (A0ACD5V6K6 entry or part of it V218I/A327R/I340E/L359M) above, with G411A counted along it
Experimental: as §4, §2, §3

[7] = target: HPPD variant AVESA V332 (SEQ ID NO: 44) (Avena sativa, UniProt A0ACD5V6K6, A327R/I340E/K404N/L359M/P271N/R214G/V218I/V260A); experiment: biochemical; type: biochemical
HPPD variant AVESA V332 (SEQ ID NO: 44), sequence (A0ACD5V6K6 entry or part of it R214G/V218I/V260A/P271N/A327R/I340E/L359M/K404N): as the sequence (A0ACD5V6K6 entry or part of it V218I/A327R/I340E/L359M) above, with R214G, V260A, P271N, K404N counted along it
Experimental: as §4, §2, §3

[8] = target: HPPD variant AVESA V351 (SEQ ID NO: 50) (Avena sativa, UniProt A0ACD5V6K6, A327R/G411A/I340E/L359Y/R214G/S304T/V218I); experiment: biochemical; type: biochemical
HPPD variant AVESA V351 (SEQ ID NO: 50), sequence (A0ACD5V6K6 entry or part of it R214G/V218I/S304T/A327R/I340E/L359Y/G411A): as the sequence (A0ACD5V6K6 entry or part of it V218I/A327R/I340E/L359M) above, with R214G, S304T, M359Y, G411A counted along it
Experimental: as §4, §2, §3

[9] = target: HPPD variant AVESA V358 (SEQ ID NO: 56) (Avena sativa, UniProt A0ACD5V6K6, A327R/I340E/L359M/P271N/R214G/S304T/V218I/V260A); experiment: biochemical; type: biochemical
HPPD variant AVESA V358 (SEQ ID NO: 56), sequence (A0ACD5V6K6 entry or part of it R214G/V218I/V260A/P271N/S304T/A327R/I340E/L359M): as the sequence (A0ACD5V6K6 entry or part of it V218I/A327R/I340E/L359M) above, with R214G, V260A, P271N, S304T counted along it
Experimental: as §4, §2, §3

[10] = target: HPPD variant AVESA V296 (SEQ ID NO: 20) (Avena sativa, UniProt A0ACD5V6K6, A327R/G411A/I340E/L359Y/R214G/V218I); experiment: biochemical; type: biochemical
HPPD variant AVESA V296 (SEQ ID NO: 20), sequence (A0ACD5V6K6 entry or part of it R214G/V218I/A327R/I340E/L359Y/G411A): as the sequence (A0ACD5V6K6 entry or part of it V218I/A327R/I340E/L359M) above, with R214G, M359Y, G411A counted along it
Experimental: as §4, §2, §3

[11] = target: HPPD variant AVESA V313 (SEQ ID NO: 38) (Avena sativa, UniProt A0ACD5V6K6, A327R/I340E/L359Y/P271N/R214G/V218I/V260A); experiment: biochemical; type: biochemical
HPPD variant AVESA V313 (SEQ ID NO: 38), sequence (A0ACD5V6K6 entry or part of it R214G/V218I/V260A/P271N/A327R/I340E/L359Y): as the sequence (A0ACD5V6K6 entry or part of it V218I/A327R/I340E/L359M) above, with R214G, V260A, P271N, M359Y counted along it
Experimental: as §4, §2, §3

wild-type tobacco plants = experiment: spray test, herbicidal damage scoring; type: in vivo; conditions: Table 4.1, 7 days after treatment, 100=complete death, 0=no damage, one value per plant/event
Experimental: Once rooted, plantlets are transferred from agar and potted into 50% peat, 50% John Innes Soil No. 3 or, for example, MetroMix® 380 soil (Sun Gro Horticulture, Bellevue, WA) with slow-release fertilizer in 3 inch round or 4 inch square pots and left regularly watered to establish for 8-12d in the glass house. Glass house conditions are about 24-27° C. day; 18-21° C. night and approximately a 14h (or longer in UK summer) photoperiod.
About 20-30 TO events are produced for a number of HPPD variant genes.
Tables 4.1-4.9 show the herbicidal damage scoring on transgenic tobacco plants 7 days after treatment. A score of 100=complete death and 0=no damage observed.

[12] = AVESA V162, SEQ ID NO: 122, read-out: IC50
[13] = AVESA V306, SEQ ID NO: 32, read-out: IC50
[14] = AVESA V180, SEQ ID NO: 124, read-out: IC50
[15] = AVESA V332, SEQ ID NO: 44, read-out: IC50
[16] = AVESA V351, SEQ ID NO: 50, read-out: IC50
[17] = AVESA V358, SEQ ID NO: 56, read-out: IC50
[18] = AVESA V296, SEQ ID NO: 20, read-out: IC50
[19] = AVESA V313, SEQ ID NO: 38, read-out: IC50

bicyclopyrone
IC50 [1]: < 0.39 µM
IC50 [2]: 0.53 µM
IC50 fold improvement over SEQ ID NO: 122 [3]: 110 ×
IC50 [4, 12]: 0.38 µM
IC50 [5, 13]: 10.2 µM
IC50 [6, 14]: 55.6 µM
IC50 [7, 15]: 102 µM
IC50 [8, 16]: > 500 µM
IC50 [9, 17]: < 0.39 µM
IC50 [10, 18]: > 500 µM
IC50 [11, 19]: < 0.39 µM
herbicidal damage scoring, Bicyclopyrone (800 g/ha) (wild-type tobacco plants): 95

Cn1nnnc1NC(=O)c1ccc(C(F)(F)F)nc1-n1cncn1 [Herbicide D, N-(1-methyltetrazol-5-yl)-2-(1,2,4-triazol-1-yl)-6-(trifluoromethyl)pyridine-3-carboxamide]
IC50 [1]: 11.3 µM
IC50 [2]: 10.5 µM
IC50 fold improvement over SEQ ID NO: 122 [3]: 36 ×
IC50 [4]: 6.73 µM
IC50 [5]: 129 µM
IC50 [6]: > 500 µM
IC50 [7]: 134 µM
IC50 [8]: > 500 µM
IC50 [9]: 177 µM
IC50 [10]: > 500 µM
IC50 [11]: 205 µM
herbicidal damage scoring, Herbicide D (2000 g/ha) (wild-type tobacco plants): 99 and 96 and 97 and 95

COc1ccc(-n2nc(C)cc(C(=O)C3C(=O)CCCC3=O)c2=O)cc1OC [Herbicide C, dioxopyritrione]
IC50 [1]: 0.26 µM
IC50 [2]: 0.25 µM
IC50 fold improvement over SEQ ID NO: 122 [3]: no improvement
IC50 [4, 12]: 0.25 µM
IC50 [5, 13]: > 50 µM
IC50 [6, 14]: 0.61 µM
IC50 [7, 15]: > 50 µM
IC50 [8, 16]: 14.3 µM
IC50 [9, 17]: < 0.19 µM
IC50 [10, 18]: 1.3 µM
IC50 [11, 19]: ~0.2 µM
herbicidal damage scoring, Herbicide C 100 g/ha (wild-type tobacco plants): 95 and 99 and 96
herbicidal damage scoring, Herbicide C (200 g/ha) (wild-type tobacco plants): 95 and 97 and 98 and 96
